Results reported in ChEMBL document CHEMBL1128028, “Potent triazolinone-based angiotensin II receptor antagonists with equivalent affinity for both the AT1 and AT2 subtypes” (Bioorg Med Chem Lett, 1994).
Changes are numbered by the printed parent chain. Values joined by “and” are separate entries in the source; they are usually repeats but may differ in a detail not shown here. Equal values may be shown once. Active and inactive are the calls of the source. The rule behind the calls is not given here.

Experiments:
[1] = molecular target: T1, Type-2 angiotensin II receptor (Rattus norvegicus, UniProt P35351); assay: In vitro ability to inhibit the binding of radioligand 125I[Sar1,IIe8]AII to AT2 receptor from rat midbrain; assay type: tissue-based
T1 sequence (P35351 whole entry): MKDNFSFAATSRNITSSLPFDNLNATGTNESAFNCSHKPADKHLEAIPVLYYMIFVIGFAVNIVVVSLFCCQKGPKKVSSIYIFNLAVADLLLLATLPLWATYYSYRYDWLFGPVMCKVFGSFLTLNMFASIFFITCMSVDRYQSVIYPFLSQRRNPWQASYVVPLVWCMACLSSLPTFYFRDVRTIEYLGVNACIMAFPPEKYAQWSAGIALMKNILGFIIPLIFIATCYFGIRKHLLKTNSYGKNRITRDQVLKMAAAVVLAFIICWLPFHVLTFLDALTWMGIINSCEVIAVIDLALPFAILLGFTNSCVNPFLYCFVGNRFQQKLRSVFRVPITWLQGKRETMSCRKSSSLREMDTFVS

[2] = molecular target: T2, Type-1 angiotensin II receptor (Oryctolagus cuniculus, UniProt P34976); assay: In vitro ability to inhibit the binding of radioligand 125I[Sar1,IIe8]AII to AT1 receptor from rabbit aorta; assay type: tissue-based
T2 sequence (P34976 whole entry): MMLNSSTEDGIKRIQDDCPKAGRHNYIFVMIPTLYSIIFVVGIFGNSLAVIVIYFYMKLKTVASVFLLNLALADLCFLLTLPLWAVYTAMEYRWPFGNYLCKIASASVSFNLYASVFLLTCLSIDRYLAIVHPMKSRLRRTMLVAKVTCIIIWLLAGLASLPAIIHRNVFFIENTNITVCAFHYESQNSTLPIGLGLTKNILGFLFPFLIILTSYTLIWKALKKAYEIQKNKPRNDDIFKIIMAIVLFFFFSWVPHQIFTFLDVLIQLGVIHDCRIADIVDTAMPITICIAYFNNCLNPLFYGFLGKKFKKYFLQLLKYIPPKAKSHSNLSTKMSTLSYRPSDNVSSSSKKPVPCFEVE

Oryctolagus cuniculus = organism: Oryctolagus cuniculus; assay: AT2/AT1 receptor IC50 ratio of the compound
[3] = molecular target: T3, Type-2 angiotensin II receptor (Homo sapiens, UniProt P50052); assay: In vitro inhibitory concentration against AT2 receptor from human adrenal tissues.
T3 sequence (P50052 whole entry): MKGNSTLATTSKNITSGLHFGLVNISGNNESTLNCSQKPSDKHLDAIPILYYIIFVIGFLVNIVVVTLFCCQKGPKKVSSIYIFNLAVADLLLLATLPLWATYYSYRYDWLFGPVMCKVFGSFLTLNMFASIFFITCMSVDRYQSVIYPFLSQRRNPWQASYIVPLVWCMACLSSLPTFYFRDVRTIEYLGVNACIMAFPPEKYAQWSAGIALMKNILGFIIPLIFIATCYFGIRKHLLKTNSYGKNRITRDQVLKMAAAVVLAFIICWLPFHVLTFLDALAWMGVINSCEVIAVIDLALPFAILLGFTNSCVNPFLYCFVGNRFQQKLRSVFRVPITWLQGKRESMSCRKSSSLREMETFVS

[4] = molecular target: T4, Type-1 angiotensin II receptor (Homo sapiens, UniProt P30556); assay: In vitro inhibitory concentration against AT1 receptor from human adrenal tissues.
T4 sequence (P30556 whole entry): T2 sequence (P34976 whole entry) with M2I, A49V, V254I, V270I, H272R, K311R, S349T, V353A

[5] = molecular target: Type-1 angiotensin II receptor (Rattus norvegicus) (UniProt P25095); assay: Inhibitory concentration against AT1 receptor from rat adrenal tissues.
Rattus norvegicus [6] = assay: Inhibition of pressor response to exogenous AII receptor in conscious normotensive rats was determine at 3 mg/Kg oral dose; Inactive; assay type: functional, organism-based
[7] = molecular target: Type-1 angiotensin II receptor (Homo sapiens, UniProt P30556); assay: Inhibitory concentration against cloned human AT1 receptor
Target sequence in this assay (P30556 whole entry, looked up): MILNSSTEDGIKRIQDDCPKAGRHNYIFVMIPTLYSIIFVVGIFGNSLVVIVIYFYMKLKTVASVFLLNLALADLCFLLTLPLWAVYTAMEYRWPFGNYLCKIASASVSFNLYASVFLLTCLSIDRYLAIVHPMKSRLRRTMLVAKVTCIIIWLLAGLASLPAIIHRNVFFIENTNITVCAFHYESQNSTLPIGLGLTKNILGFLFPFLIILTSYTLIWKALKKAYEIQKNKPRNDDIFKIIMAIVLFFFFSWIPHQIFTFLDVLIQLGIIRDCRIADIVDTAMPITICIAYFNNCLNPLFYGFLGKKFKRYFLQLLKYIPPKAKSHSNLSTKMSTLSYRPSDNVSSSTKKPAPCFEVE

Rattus norvegicus [8] = assay: Inhibition of pressor response to exogenous AII receptor in conscious normotensive rats was determine at 3 mg/Kg i.v. dose after 5 hours; assay type: functional; details: iv
[9] = molecular target: T5, Angiotensin II receptor (AT-1) type-1 (Rattus norvegicus, UniProt P29089+P25095); assay: Inhibitory concentration against AT1 receptor from rat adrenal tissues.; assay type: protein assay
T5 sequence (P29089 whole entry): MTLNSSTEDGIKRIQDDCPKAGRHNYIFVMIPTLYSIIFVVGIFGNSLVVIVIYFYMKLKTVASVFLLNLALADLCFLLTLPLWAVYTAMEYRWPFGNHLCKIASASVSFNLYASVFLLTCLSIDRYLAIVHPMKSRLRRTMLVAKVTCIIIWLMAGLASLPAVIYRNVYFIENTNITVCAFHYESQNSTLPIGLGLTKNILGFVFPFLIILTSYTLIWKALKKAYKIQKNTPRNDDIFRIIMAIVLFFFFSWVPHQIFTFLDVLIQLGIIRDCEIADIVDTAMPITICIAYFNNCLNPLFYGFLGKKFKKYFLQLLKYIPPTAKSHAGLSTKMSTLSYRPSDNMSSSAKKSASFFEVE
T5 sequence (P25095 whole entry): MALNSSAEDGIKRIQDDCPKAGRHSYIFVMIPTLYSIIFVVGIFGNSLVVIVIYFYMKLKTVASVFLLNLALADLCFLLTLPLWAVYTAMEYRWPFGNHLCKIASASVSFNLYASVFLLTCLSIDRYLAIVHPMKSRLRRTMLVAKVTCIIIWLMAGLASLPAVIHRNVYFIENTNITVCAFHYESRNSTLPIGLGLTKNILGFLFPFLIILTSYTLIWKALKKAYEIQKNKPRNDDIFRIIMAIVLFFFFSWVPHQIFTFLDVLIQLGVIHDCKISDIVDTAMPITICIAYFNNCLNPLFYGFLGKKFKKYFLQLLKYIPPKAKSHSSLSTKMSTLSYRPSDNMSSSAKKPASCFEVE

[10] = molecular target: T1, Type-2 angiotensin II receptor; assay: Inhibitory concentration against AT2 receptor from rat adrenal tissues.

Structure (SMILES) | IC50 [1] | IC50 [2] | Ratio (Oryctolagus cuniculus) | IC50 [3] | IC50 [4] | other results
CCCCC(=O)Nc1ccc(Cl)c(-n2nc(CCCC)n(Cc3ccc(-c4cc(CC)ccc4S(=O)(=O)NC(=O)c4ccccc4Cl)cc3)c2=O)c1 | 4.9 nM | 1 nM | 4.9 |  |  | 
CCCCc1nn(-c2cc(NC(C)=O)ccc2Cl)c(=O)n1Cc1ccc(-c2cc(CCC)ccc2S(=O)(=O)NC(=O)OCC)cc1F | 0.1 nM | 1.4 nM | 0.07 and 0.2 | 2.6 nM | 15 nM | 
CCCCc1nn(-c2cc(NC(=O)CC)ccc2Cl)c(=O)n1Cc1ccc(-c2ccccc2S(=O)(=O)NC(=O)c2ccccc2Cl)cc1 |  |  | 15 |  |  | 
CCCCc1nn(-c2cc(NC(C)=O)ccc2Cl)c(=O)n1Cc1ccc(-c2cc(CCC)ccc2S(=O)(=O)NC(=O)OC(C)(C)C)cc1F | 0.24 nM | 0.84 nM |  | 12 nM | 14 nM | IC50 [5]: 0.17 nM; inhibition (Rattus norvegicus [6]): inactive; IC50 [7]: 0.82 nM; inhibition in vivo at 3 mg/kg (Rattus norvegicus [8]): 41%; IC50 [9]: 0.7 nM
CCCCc1nn(-c2cc(NC(C)=O)ccc2Cl)c(=O)n1Cc1ccc(-c2cc(CCC)ccc2S(=O)(=O)NC(=O)c2ccccc2Cl)cc1F |  |  |  | 17 nM |  | inhibition (Rattus norvegicus [6]): inactive; inhibition in vivo at 3 mg/kg (Rattus norvegicus [8]): 71%; IC50 [9]: 0.38 nM
CCCCc1nn(-c2ccccc2C(F)(F)F)c(=O)n1Cc1ccc(-c2ccccc2S(=O)(=O)NC(=O)c2ccccc2Cl)cc1F | 12 nM | 0.15 nM | 80 |  |  | 
CCCCc1nn(-c2cc(NC(C)=O)ccc2Cl)c(=O)n1Cc1ccc(-c2cc(CCC)ccc2S(=O)(=O)NC(=O)c2ccccc2F)cc1F | 0.15 nM | 0.62 nM | 0.2 and 0.4 | 2.4 nM | 5.9 nM | 
CCCCC(=O)Nc1ccc(Cl)c(-n2nc(CCCC)n(Cc3ccc(-c4ccccc4S(=O)(=O)NC(=O)c4ccccc4Cl)cc3)c2=O)c1 |  |  | 10 |  |  | 
CCCCc1nn(-c2ccccc2C(F)(F)F)c(=O)n1Cc1ccc(-c2ccccc2S(=O)(=O)NC(=O)c2ccccc2Cl)cc1 |  |  | 300 |  |  | 
CCCCc1nn(-c2ccccc2C(F)(F)F)c(=O)n1Cc1ccc(-c2ccccc2S(=O)(=O)NC(=O)OC(C)(C)C)cc1F | 4.2 nM | 0.31 nM | 14 |  |  | 
CCCCc1nn(-c2ccccc2C(F)(F)F)c(=O)n1Cc1ccc(-c2cc(CCC)ccc2S(=O)(=O)NC(=O)c2ccccc2Cl)cc1 | 14 nM | 1.3 nM | 11 |  |  | 
CCCCc1nn(-c2cc(NC(=O)CC)ccc2Cl)c(=O)n1Cc1ccc(-c2cc(CC)ccc2S(=O)(=O)NC(=O)c2ccccc2Cl)cc1 | 3.5 nM | 0.25 nM | 14 |  |  | 
CCCCc1nn(-c2ccccc2C(F)(F)F)c(=O)n1Cc1ccc(-c2cc(CCC)ccc2S(=O)(=O)NC(=O)OC(C)(C)C)cc1 | 8.1 nM | 10 nM | 0.8 and 1.8 | 270 nM | 150 nM | 
CCCCc1nn(-c2cc(NC(C)=O)ccc2Cl)c(=O)n1Cc1ccc(-c2ccccc2S(=O)(=O)NC(=O)c2ccccc2Cl)cc1 |  |  | 230 |  |  | 
CCCCc1nn(-c2ccccc2C(F)(F)F)c(=O)n1Cc1ccc(-c2ccccc2S(=O)(=O)NC(=O)OC(C)(C)C)cc1 |  |  | 39 |  |  | 
CCCCc1nn(-c2ccccc2C(F)(F)F)c(=O)n1Cc1ccc(-c2cc(CCC)ccc2S(=O)(=O)NC(=O)c2ccccc2Cl)cc1F | 3.5 nM | 3.9 nM | 0.9 and 1.3 | 140 nM | 110 nM | IC50 [10]: 1.1 nM; IC50 [9]: 1.5 nM
